Experimental data: patent publication US8486370B2, “Heterocyclic ligands for integrin imaging and therapy” (The Regents of the University of California, priority 2006, dated 2013)
Like-named read-outs stand apart in the source and are kept apart here.

Assays:
[1] = molecular target: T1, α4β1 integrin (Homo sapiens, UniProt P05556+P13612); test: Molt4 T-cell leukemia adhesion assay (inhibition of α4β1-mediated cell adhesion to CS-1 peptide); format: cell-based
T1 construct: adding a volume of 80 μL consisted of 1.3×10^5 Molt4 cells; endogenous in cells; host or cells: Molt4 T-cell leukemia cells
T1 sequence (P13612 34-1032): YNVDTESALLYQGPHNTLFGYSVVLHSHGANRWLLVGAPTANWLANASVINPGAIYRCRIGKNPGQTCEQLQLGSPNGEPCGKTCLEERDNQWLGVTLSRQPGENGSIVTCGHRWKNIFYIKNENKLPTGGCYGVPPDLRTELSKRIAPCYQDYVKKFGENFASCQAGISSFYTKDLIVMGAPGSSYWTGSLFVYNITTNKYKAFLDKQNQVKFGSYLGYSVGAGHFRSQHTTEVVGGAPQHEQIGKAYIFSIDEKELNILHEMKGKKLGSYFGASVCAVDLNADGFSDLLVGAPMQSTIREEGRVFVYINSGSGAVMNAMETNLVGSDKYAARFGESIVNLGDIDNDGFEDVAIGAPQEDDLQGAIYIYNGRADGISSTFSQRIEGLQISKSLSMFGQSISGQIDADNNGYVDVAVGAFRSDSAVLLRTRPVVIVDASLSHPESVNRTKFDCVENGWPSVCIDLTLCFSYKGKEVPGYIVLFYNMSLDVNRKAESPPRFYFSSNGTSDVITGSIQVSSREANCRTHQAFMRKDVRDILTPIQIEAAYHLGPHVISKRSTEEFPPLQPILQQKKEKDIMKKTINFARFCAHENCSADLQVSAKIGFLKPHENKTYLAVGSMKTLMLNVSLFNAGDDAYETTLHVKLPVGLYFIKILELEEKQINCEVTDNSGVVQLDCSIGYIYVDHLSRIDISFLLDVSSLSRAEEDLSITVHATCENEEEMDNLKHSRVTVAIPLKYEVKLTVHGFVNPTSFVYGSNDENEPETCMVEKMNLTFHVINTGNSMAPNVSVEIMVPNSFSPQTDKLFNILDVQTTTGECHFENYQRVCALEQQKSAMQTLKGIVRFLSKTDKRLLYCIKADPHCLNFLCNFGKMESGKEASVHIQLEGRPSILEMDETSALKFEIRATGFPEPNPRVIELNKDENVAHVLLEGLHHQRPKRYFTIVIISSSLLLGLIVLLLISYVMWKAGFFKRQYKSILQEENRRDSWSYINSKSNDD
T1 sequence (P05556 21-798): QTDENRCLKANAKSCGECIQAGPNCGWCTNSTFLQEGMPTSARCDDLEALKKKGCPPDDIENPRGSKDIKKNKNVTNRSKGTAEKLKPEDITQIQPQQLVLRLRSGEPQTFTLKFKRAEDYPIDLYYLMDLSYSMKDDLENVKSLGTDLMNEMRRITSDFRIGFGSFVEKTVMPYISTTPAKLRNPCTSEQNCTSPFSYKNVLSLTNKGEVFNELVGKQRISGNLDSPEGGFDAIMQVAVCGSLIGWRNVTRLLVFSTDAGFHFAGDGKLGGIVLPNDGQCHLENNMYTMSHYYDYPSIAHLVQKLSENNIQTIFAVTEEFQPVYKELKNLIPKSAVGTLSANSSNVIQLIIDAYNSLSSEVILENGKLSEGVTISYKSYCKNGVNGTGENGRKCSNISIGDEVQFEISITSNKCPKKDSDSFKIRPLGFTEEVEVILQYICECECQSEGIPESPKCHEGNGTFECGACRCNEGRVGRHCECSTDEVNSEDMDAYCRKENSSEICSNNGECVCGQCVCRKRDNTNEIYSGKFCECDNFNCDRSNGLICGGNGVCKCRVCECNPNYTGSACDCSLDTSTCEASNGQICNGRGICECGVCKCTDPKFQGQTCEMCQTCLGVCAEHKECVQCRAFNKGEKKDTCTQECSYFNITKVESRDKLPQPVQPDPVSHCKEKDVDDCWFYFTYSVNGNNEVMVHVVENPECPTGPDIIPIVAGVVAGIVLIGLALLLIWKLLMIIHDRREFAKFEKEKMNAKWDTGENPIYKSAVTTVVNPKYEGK
Source text: α4β1 integrins are cell surface heterodimeric glycoproteins that mediate cell adhesion to vascular cell adhesion molecule-1 (VCAM-1 or CD 106) as well as to extracellular matrix (ECM) protein fibronectin (FN). Integrin expression and function depend on cell activation. The dynamic changes in integrin affinity, avidity, or activation state are implicated in cell migration, survival and apoptosis, cancer development and metastasis. Binding affinities (IC50s) of the ligands were studied in a Molt4 T-cell leukemia adhesion assay by inhibiting the α4β1-mediated cell adhesion to CS-1 peptide ([…]), which is the binding motif of fibronectin to α4β1 receptor.
General Procedure for Cell Adhesion Assay:
96-well plates were prepared by coating them with 5 μg/mL neutravidin for a one-hour period, followed by adding […] biotin-conjugated CS-1 peptide. The wells were then blocked with 1% […] in phosphate buffer saline (PBS) solution, followed by adding a volume of 80 μL consisted of 1.3×10^5 Molt4 cells, and finally different dilutions of tested ligands in binding buffer (1 mM Mn^2+ TBS), were added to each well. To allow binding, the plates were incubated for 30 min at 37° C., followed by washing of unbound cells with PBS. Bound cells were fixed with 10% formalin buffered in phosphate for 30 min and stained with 0.5% crystal violet. After washing and drying at room temperature, the dye was dissolved in 1% SDS, and absorbance at 570 nm was measured using a 96-well TECAN OD UV/Vis spectrophotometer. Inhibition was calculated as a percentage resulting from the concentration-dependent curve.

[2] = xenograft model, optical and radioimaging; cited from earlier work
[3] = compound by itself; cited from earlier work

IC50 [1] [nM]	Compound	other results
	NC(=O)C1(NC(=O)[C@H](CCCC(=O)O)NC(=O)[C@H](CCCCNC(=O)/C=C/c2cccnc2)NC(=O)c2ccc(Nc3nc4cc(Br)ccc4[nH]3)cc2)CCCCC1 [KLCA12]	IC50 ([1]; Molt4 cells, adhesion to biotin-conjugated CS-1 peptide, 1 mM Mn2+ TBS, 30 min at 37° C.): 0.115 nM
0.053	NC(=O)C1(NC(=O)C(CCCC(=O)O)NC(=O)C(CCCCNC(=O)C=Cc2cccnc2)NC(=O)Cc2ccc(Nc3nc4ccccc4s3)cc2)CCCCC1 (stereo not drawn) [KLCA14]	
4	Cc1cccc2oc(Nc3ccc(CC(=O)NC(CCCCNC(=O)C=Cc4cccnc4)C(=O)NC(CCCC(=O)O)C(=O)NC4(C(N)=O)CCCCC4)cc3)nc12 (stereo not drawn) [KLCA15]	
2	NC(=O)C1(NC(=O)C(CCCC(=O)O)NC(=O)C(CCCCNC(=O)C=Cc2cccnc2)NC(=O)Cc2ccc(Nc3nc4ccccc4o3)cc2)CCCCC1 (stereo not drawn) [KLCA16]	
	Cc1ccccc1NC(=O)Nc1ccc(CC(=O)N[C@@H](CCCCNC(=O)/C=C/c2cccnc2)C(=O)N[C@@H](CCCC(=O)O)C(=O)NC2(C(N)=O)CCCCC2)cc1 [LLP2A]	uptake in the kidneys [2]: rather high uptake in the kidneys; water solubility [3]: not very water soluble
